In PubChem BioAssay (NCI) one finds TGI and GI50 data, which are given here for 23 compounds.

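Where inhibition never reached the appropriate level, the endpoint shown equals the highest concentration tested. Otherwise, values were interpolated linearly from a five-concentration, 48-hour dose response in 96-well plates. Abbreviation: GI50, concentration required for 50% inhibition of growth. TGI: concentration producing complete growth inhibition.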

What all share (test): NCI-60 cell line screen, 48 h
Experiment [1] has as its system ACHN renal.
For experiment [2], the system named is HCC-2998 colon.
Experiment [3] relates to RPMI-8226 leukemia.
Experiment [4] deals with RXF 393 renal.
Experiment [5] deals with SK-OV-3 ovarian.
Experiment [6] relates to SN12C renal.
The test system of experiment [7] is KM12 colon.
Experiment [8] deals with A498 renal.
Experiment [9] has as its system OVCAR-4 ovarian.
For experiment [10], the system named is NCI-H522 lung.

As for `Clc1ccc(Nc2nc3ccccc3nc2-c2cccs2)cc1Cl`, the TGI is > 100 µM in experiment [1]; > 100 µM in [2]; > 100 µM in experiment [3]; 89.2 µM in experiment [4]; > 100 µM in experiment [5]; > 100 µM in [6].

`COc1ccc(-c2cc(Cc3cccs3)c(=O)[nH]n2)cc1`: the TGI in [1], in experiment [2], in experiment [7], in experiment [4], in [5] and in experiment [6] was > 100 µM each time.

With `COc1cc2c3c(n(C)c(=O)c2cc1OC)-c1cc2c(cc1/C3=C\CCCCN1C(=O)c3ccccc3C1=O)OCO2`, the GI50 is 2.79 µM in experiment [8]; 1.8 µM in experiment [1]; 12.2 µM in experiment [2]; 59.3 µM in [7]; 26 µM in experiment [9]; 8.5 µM in experiment [3]. Besides, the GI50 is 56.5 µM in experiment [4] and 13.5 µM in experiment [5]. For the same compound, the TGI is 37.1 µM in experiment [8]; 10.9 µM in [1]; 58.7 µM in experiment [2]; > 100 µM in [7]; > 100 µM in experiment [9]; > 100 µM in experiment [3]. Moreover, the TGI was > 100 µM in experiment [4] and 45.7 µM in [5].

On to `CO[C@H]1CC(O[C@@H]2/C(C)=C/C[C@@H]3C[C@@H](C[C@]4(C=C[C@H](C)[C@@H](C5CCCCC5)O4)O3)OC(=O)[C@@H]3C=C(C)[C@@H](O)[C@H]4OC/C(=C\C=C\[C@@H]2C)[C@]43O)O[C@@H](C)C1O[C@H]1C[C@H](OC)[C@@H](O)[C@H](C)O1` (stereo partly specified), for which the GI50 in [1] is 1.66 µM; in experiment [2] it was 1.51 µM; in experiment [7] it was 1.77 µM; in [9], 1.52 µM; in experiment [3] it was 1.39 µM; in [4], 1.18 µM. Moreover, the GI50 in experiment [5] is 1.97 µM. Moreover, the TGI came out at 3.04 µM in [1]; 3 µM in experiment [2]; 3.54 µM in experiment [7]; 2.88 µM in experiment [9]; 4.38 µM in [3]; 2.46 µM in [4]. In [5], this compound showed a TGI of 3.61 µM.

Take `COc1ccc(-c2[nH]c3ccccc3c2-c2ccc(OC)cc2)cc1`: the GI50 in experiment [8] was 4 µM; in [1], 11.9 µM; in experiment [2] it was 6.11 µM; in experiment [7], 2.48 µM; in experiment [10], 12 µM; in experiment [9], 7.66 µM. Also, the results for the GI50 in [3], in experiment [5] and in experiment [6] were 3.27 µM, 5.85 µM and 6.73 µM, respectively. In addition, the TGI in [8] came to 12.8 µM; in experiment [1], 28.3 µM; in experiment [2], 21.1 µM; in experiment [7], 6.64 µM; in experiment [10] it was 40.7 µM; in [9], 23.6 µM. In addition, the TGI in experiment [3] came to 69.5 µM; in [5], 26.6 µM; in experiment [6] it was 23.5 µM.

Regarding `C#C[C@]1(O)CCCC2=CC(=O)CC[C@@]21C`, the TGI in experiment [1], in [2], in [7], in [10], in experiment [3] and in experiment [4] was > 100 µM in each case. The TGI in [5] and in experiment [6] was > 100 µM throughout.

Take `Cc1ccc(-c2nnc(-c3nn(-c4ccccc4)c4nc5ccccc5nc34)o2)cc1`: the TGI in experiment [1] is 35.2 µM; in experiment [7] it was > 100 µM; in [10], 48.7 µM; in [9], 8.79 µM; in experiment [3], > 100 µM; in [4] it was 20.5 µM. Further, the figures for the TGI in experiment [5] and in [6] were 24.4 µM and > 100 µM, respectively.

Consider `O=C1c2ccccc2-c2cc([N+](=O)[O-])c([N+](=O)[O-])cc21`, for which the TGI in experiment [8] amounted to 33.1 µM; in [1] it was 3.07 µM; in experiment [7] it was 3.51 µM; in experiment [10] it was 2.99 µM; in experiment [9] it was 3.31 µM; in experiment [3], 6.23 µM. Moreover, the TGI is 2.64 µM in [4], 6.51 µM in [5] and 3.42 µM in experiment [6].

Turning to `CO/N=C(\COc1ccc2c(c1)[nH]c1ccccc12)c1ccc(F)cc1`, the GI50 was 35.7 µM in experiment [1]; > 100 µM in experiment [2]; > 100 µM in [7]; > 100 µM in [10]; 26.1 µM in [9]; 43.9 µM in experiment [3]. Further, the GI50 in experiment [4] was 27.6 µM; in [5], 28.7 µM; in experiment [6], > 100 µM. Further, the TGI in [1], in experiment [2], in [7], in [10], in experiment [9] and in experiment [3] was > 100 µM in each case. Besides, the TGI in experiment [4], in experiment [5] and in experiment [6] was > 100 µM throughout.

`N#CC1(C(N)=O)C(c2ccc(Cl)cc2)CC(=O)CC1c1ccc(Cl)cc1` (stereo unspecified): the GI50 in experiment [8] was 14.7 µM; in experiment [1] it was 21.8 µM; in experiment [2], 14.8 µM; in experiment [7] it was 19.4 µM; in [10], 14.2 µM; in [9], 17.5 µM. In addition, the figures for the GI50 in [3], in experiment [5] and in experiment [6] were 18.1 µM, 20.3 µM and 19.4 µM, respectively. Moreover, the TGI is 27.8 µM in [8]; 57.8 µM in [1]; 29.9 µM in experiment [2]; 43.9 µM in experiment [7]; 29.5 µM in [10]; 35.6 µM in [9]. Further, the TGI was 50.7 µM in [3], 45 µM in [5] and 35.3 µM in experiment [6].

Regarding `O=C1C(=C([O-])c2ccccc2)C(=O)c2ccccc21.O=C1C(=C([O-])c2ccccc2)C(=O)c2ccccc21.[Fe+2]`, the GI50 in experiment [8] is > 100 µM; in [1] it was > 100 µM; in experiment [2], 69.5 µM; in experiment [7], 55.1 µM; in experiment [10], > 100 µM; in [9] it was > 100 µM. The GI50 in experiment [3] is 65.7 µM; in experiment [5] it was > 100 µM; in experiment [6], > 100 µM. Also, the TGI in experiment [8], in [1], in [2], in experiment [7], in [10] and in experiment [9] was > 100 µM throughout. The TGI in [3], in experiment [5] and in experiment [6] was > 100 µM in each case.

As for `CCOC(=O)C1C(=S)NC(=O)C1C#N` (stereo unspecified), the TGI in experiment [1], in [2], in [7], in experiment [10], in experiment [9] and in [3] was > 100 µM throughout. Moreover, the TGI in experiment [4], in [5] and in [6] was > 100 µM each time.

With `O=C1OC(Cc2ccccc2)(N2CCCC2=O)C1c1ccccc1` (stereo unspecified), the TGI in [8], in [1], in experiment [7], in experiment [10], in experiment [9] and in [3] was > 100 µM each time. Also, the TGI in experiment [5] and in experiment [6] was > 100 µM throughout.

In the case of `NNC(=O)CS(=O)(=O)Nc1ncccn1`, the TGI in experiment [8], in experiment [1], in experiment [7], in experiment [10], in experiment [9] and in experiment [3] was > 100 µM throughout. The TGI in [4], in experiment [5] and in experiment [6] was > 100 µM in each case.

Take `COC(=O)C1(C)CCc2c(OC)ccc(OC)c2C1=O` (stereo unspecified): the TGI in [1], in [2], in [7], in experiment [10], in experiment [9] and in experiment [3] was > 100 µM in each case. Besides, the TGI in experiment [4], in experiment [5] and in experiment [6] was > 100 µM each time.

In the case of `O=C(O)CN1CCN(CC(=O)O)CC(=O)[O][Hg][O]C(=O)C1`, the GI50 in experiment [8] was > 100 µM; in experiment [1], 19.6 µM; in experiment [7] it was > 100 µM; in [10], 6.75 µM; in [9] it was 17.7 µM; in [3] it was 18.2 µM. The GI50 is 18.1 µM in experiment [4], > 92.2 µM in [5] and 18.5 µM in experiment [6]. Also, the TGI is > 100 µM in [8]; 34.2 µM in experiment [1]; > 100 µM in experiment [7]; > 47.6 µM in [10]; 34 µM in [9]; 50.5 µM in experiment [3]. Also, the figures for the TGI in [4], in [5] and in experiment [6] were 32.5 µM, > 100 µM and 34.8 µM, respectively.

With `Cc1cccc(C)c1NC(=O)/C(=N/NC(N)=S)C(C)C(=O)c1ccc(Cl)cc1` (stereo unspecified), the TGI in [8], in experiment [1], in experiment [2], in experiment [7], in experiment [10] and in experiment [9] was > 100 µM throughout. Moreover, the TGI in experiment [3], in experiment [5] and in experiment [6] was > 100 µM throughout.

`COc1cccc(OC(=O)c2ccc(C(F)(F)F)nc2Nc2cc(Cl)ccc2C)c1`: the GI50 in experiment [8] is 4.19 µM; in experiment [1], 15.6 µM; in experiment [7], 20.6 µM; in experiment [10], 10 µM; in [9], > 100 µM; in [3] it was 4.2 µM. Further, the GI50 in [4] is 0.245 µM; in experiment [5], 11.1 µM; in experiment [6] it was 29.2 µM. Also, the TGI in experiment [8] was 20.9 µM; in [1], > 100 µM; in [7], 50 µM; in experiment [10], 71.3 µM; in [9], > 100 µM; in experiment [3] it was 23.2 µM. Moreover, the TGI in [4] was 0.987 µM; in [5], 80.7 µM; in [6], > 100 µM.

Consider `O=C(NC1CCCCC1)NS(=O)(=O)c1ccc2c(c1)CCC2`, for which the TGI in [1], in experiment [2], in experiment [7], in experiment [10], in experiment [3] and in [4] was > 100 µM throughout. Further, the TGI in [5] and in experiment [6] was > 100 µM in each case.

Turning to `CCN(CC)CC1c2ccccc2C(CNc2ccccc2)N1C` (stereo unspecified), the TGI in [1], in experiment [2], in experiment [7], in [10], in [9] and in [3] was > 100 µM throughout. The TGI in experiment [4], in [5] and in [6] was > 100 µM each time.

`CCOC(=O)C1=C(C)N(c2ccc(Cl)cc2)[C@]2(C#N)C(O)=C(Cl)C(Cl)=C(O)[C@]12C#N`: the GI50 is > 100 µM in [8]; 31.6 µM in experiment [1]; 47.9 µM in experiment [7]; 56.5 µM in [10]; > 100 µM in experiment [9]; 48.6 µM in [3]. In addition, the GI50 was > 100 µM in experiment [4], 69.6 µM in [5] and > 100 µM in experiment [6]. Moreover, the TGI in experiment [8], in experiment [1], in experiment [7], in experiment [10], in experiment [9] and in experiment [3] was > 100 µM throughout. The TGI in experiment [4], in experiment [5] and in experiment [6] was > 100 µM throughout.

`COc1ccc(C=O)c([N+](=O)[O-])c1`: the TGI in experiment [8], in [1], in [7], in experiment [10], in experiment [9] and in experiment [3] was > 100 µM each time. Also, the TGI in experiment [4], in experiment [5] and in [6] was > 100 µM in each case.

Turning to `CC#CCC1CCC(OCC)=CC1=O` (stereo unspecified), the TGI in [1], in experiment [7], in experiment [10], in experiment [9], in experiment [3] and in experiment [4] was > 100 µM each time. Moreover, the TGI in experiment [5] and in experiment [6] was > 100 µM throughout.
